This data set can be described thus: pH-metric titration of pKa.

Regarding `N/C(=N\O)c1[nH]c(Br)cc(=O)c1O` [Compound 6], the pKa came out at 9.06 ± 0.02. `O=c1cc(Br)[nH]c(-c2nnn[nH]2)c1O` [Compound 4]: the pKa is more than 12.

Consider `O=C(O)c1[nH]c(Br)cc(=O)c1O` [Compound 2], for which, for the setting “phenolic proton, pH-metric titration”, the “Measured pKa” value was 9.79 ± 0.01.

In turn, `NC(=O)c1[nH]c(Br)cc(=O)c1O` [Compound 3] displayed a pKa of 9.64 ± 0.02.
